Laboratory results from patent US20260327224A1, “SUBSTITUTED PYRIDOTRIAZOLE COMPOUND, AND PREPARATION METHOD THEREFOR AND USE THEREOF” (ORIGIANT PHARMACEUTICAL CO., LTD., priority 2023, published 2026).
pEC50: −log10 of the molar value.

Test system: HT-29 cells (colon cancer cells)
Test: In vitro assay for protection of HT-29 cells from necroptosis (TNFα/Smac mimetic/Z-VAD-FMK, CCK-8)
Assay type: cell-based
Settings: Homo sapiens, Protective Activity Against Necroptosis, TNFα/Smac mimetic/Z-VAD-FMK induced, 24 h
From the text: Z′=1−3(SDmin+SDmax)/(AVEmax−AVEmin) • wherein: • Min is the positive control Data, and Max is the negative control DMSO Data. • SD is the standard deviation, and AVE is the average. In Vitro Assay for Protection of HT-29 Cells from Necroptosis:
1) Experimental Materials
DMEM medium was purchased from Gibco; penicillin-streptomycin was purchased from Hyclone; TNFα was purchased from Peprotech; Smac mimetic and Z-VAD-FMK were purchased from Selleck; and CCK-8 was purchased from Medchem Express.
HT-29 cells (colon cancer cells) were cultured in DMEM+10% FBS+penicillin/streptomycin. For the experiment, HT-29 cells in the logarithmic phase were collected and seeded into 96-well plates at a specific density (typically 8×10^3 cells/well for adherent cells). The cells were cultured overnight in an incubator at 37° C. with 5% CO2. On the following day, the test compound was diluted with culture medium to the corresponding concentrations and added into the 96-well plate, with 3 replicate wells for each sample. A solvent control group and a blank control group containing only culture medium were set simultaneously. The spiked cells were induced with a combination of TNFα/Smac mimetic/Z-VAD-FMK for 24 h. Subsequently, 10 μL of CCK8 solution was added to each well, and the cells were incubated in an incubator for 1-3 h. Absorbance was measured at […] using a microplate reader, and the cell necrosis protection rate of the drug was calculated using the following formula:
Cell necrosis protection rate=[(X−C0)/(C−C0)]×100% • where C, C0, and X represent the average absorbance values of the solvent control group, the blank control group, and the drug treatment group, respectively. Finally, a cell viability curve was fitted using Graphpad Prism 5.0 software, and the EC50 value of the test compound for inhibiting necroptosis was calculated.

`COC1CCN(CC(=O)Nc2nc3cc(-c4ccc5c(c4)c(C(=O)N[C@@H](C)c4ccc(F)cc4)cn5C)ccn3n2)C1` (some centres unmarked) [Compound 19] and `C[C@H](NC(=O)c1cn(C)c2ccc(-c3ccn4nc(NC(=O)CN5CC[C@@H](O)C5)nc4c3)cc12)c1ccc(F)cc1` [Compound 12] cannot be ordered by pEC50: over 9.00 for the first, over 9.00 for the second.

First: C[C@H](NC(=O)c1cn(C)c2ccc(-c3ccn4nc(NC(=O)Cn5cncn5)nc4c3)cc12)c1ccc(F)cc1 [Compound 57]
Second: C[C@H](NC(=O)c1cn(C)c2ccc(-c3ccn4nc(NC(=O)Cn5ccnn5)nc4c3)cc12)c1ccc(F)cc1 [Compound 52]
The pEC50 of the first is lower: 7.00 to 8.00 for the first, over 9.00 for the second. The second is the more potent here.

`Cn1cc(C(=O)N2CCOC[C@@H]2c2ccc(F)cc2)c2cc(-c3ccn4nc(NC(=O)C5CC5)nc4c3)ccc21` [Compound 151] and `Cn1cc(C(=O)N2CCOC[C@@H]2c2ccc(F)cc2)c2cc(-c3ccn4nc(NC(=O)[C@H]5CCCO5)nc4c3)ccc21` [Compound 150] cannot be ordered by pEC50: over 9.00 for the first, over 9.00 for the second.

Compared with `C[C@H](NC(=O)c1cn(C)c2ccc(-c3ccn4nc(NC(=O)c5cnn(C)c5)nc4c3)cc12)C(C)(C)C` [Compound 91], `C[C@H](NC(=O)c1cn(C)c2ccc(-c3ccn4nc(NC(=O)C5CC5F)nc4c3)cc12)C(C)(C)C` (some centres unmarked) [Compound 92] is higher in pEC50: 5.00 to 6.00 for the first, 6.00 to 7.00 for the second. The second is the more potent here.

First: Cn1cc(C(=O)NC2(c3ccc(F)cc3)COC2)c2cc(-c3ccn4nc(NC(=O)C5CC5)nc4c3)ccc21 [Compound 148]
Second: C[C@H](NC(=O)c1cn(C)c2ccc(-c3ccn4nc(NC(=O)C5CCOC5)nc4c3)cc12)c1ccc(F)cc1 (some centres unmarked) [Compound 106]
The pEC50 of the first is lower: 7.00 to 8.00 for the first, over 9.00 for the second.

First: Cn1cc(C(=O)N[C@@H]2C[C@H]2c2ccc(F)c(F)c2)c2cc(-c3ccn4nc(NC(=O)[C@H]5CCCO5)nc4c3)ccc21 [Compound 184]
Second: Cn1cc(C(=O)N[C@H]2CCc3ccc(F)cc32)c2cc(-c3ccn4nc(NC(=O)[C@H]5CCCO5)nc4c3)ccc21 [Compound 121]
The pEC50 of the first is lower: 6.00 to 7.00 for the first, over 9.00 for the second.

`C[C@@H]1CN(CC(=O)Nc2nc3cc(-c4ccc5c(c4)c(C(=O)N[C@@H](C)c4ccc(F)cc4)cn5C)ccn3n2)C[C@H](C)O1` [Compound 46] and `CC1CN(CC(=O)Nc2nc3cc(-c4ccc5c(c4)c(C(=O)N[C@@H](C)c4ccc(F)cc4)cn5C)ccn3n2)CCO1` (some centres unmarked) [Compound 45] cannot be ordered by pEC50: over 9.00 for the first, over 9.00 for the second.

`C[C@H](NC(=O)c1cn(C)c2ccc(-c3ccn4nc(NC(=O)CN5CC(F)(F)C5)nc4c3)cc12)c1ccc(F)cc1` [Compound 42] and `C[C@H](NC(=O)c1cn(C)c2ccc(-c3ccn4nc(NC(=O)CN5CCC(F)(F)CC5)nc4c3)cc12)c1ccc(F)cc1` [Compound 47] cannot be ordered by pEC50: over 9.00 for the first, over 9.00 for the second.

`C[C@H](NC(=O)c1cn(C)c2ccc(-c3ccn4nc(NC(=O)CN5CC(C)(C#N)C5)nc4c3)cc12)c1ccc(F)cc1` [Compound 29] and `C[C@H](NC(=O)c1cn(C)c2ccc(-c3ccn4nc(NC(=O)CN5CC(C#N)C5)nc4c3)cc12)c1ccc(F)cc1` [Compound 34] cannot be ordered by pEC50: over 9.00 for the first, over 9.00 for the second.

`Cn1nc(C(=O)N[C@@H](CF)c2ccc(F)cc2)c2cc(-c3ccn4nc(NC(=O)N5CCOCC5)nc4c3)ccc21` [Compound 189] and `Cn1nc(C(=O)N[C@@H](CF)c2ccc(F)cc2)c2cc(-c3ccn4nc(NC(=O)C5CC5)nc4c3)ccc21` [Compound 190] cannot be ordered by pEC50: over 9.00 for the first, over 9.00 for the second.

`Cn1cc(C(=O)N[C@@H](CF)c2ccc(F)cc2)c2cc(-c3ccn4nc(NC(=O)CCl)nc4c3)ccc21` [Compound 94] and `CO[C@@H](C)C(=O)Nc1nc2cc(-c3ccc4c(c3)c(C(=O)N[C@@H](CF)c3ccc(F)cc3)cn4C)ccn2n1` [Compound 98] cannot be ordered by pEC50: over 9.00 for the first, over 9.00 for the second.

First: CC(c1ccc(F)cc1)n1cnc(-c2cn(C)c3ccc(-c4ccn5nc(NC(=O)C6CC6)nc5c4)cc23)n1 (centres unmarked) [Compound 210]
Second: Cn1cc(C(=O)Nc2nc3cc(-c4ccc5c(c4)c(C4=NC(c6ccc(F)cc6)CO4)cn5C)ccn3n2)cn1 (centres unmarked) [Compound 213]
The pEC50 of the first is lower: 6.00 to 7.00 for the first, 7.00 to 8.00 for the second.

Compared with `C[C@H](NC(=O)c1cn(C)c2ccc(-c3ccn4nc(NC(=O)CN5CC[C@@H](CO)C5)nc4c3)cc12)c1ccc(F)cc1` [Compound 62], `C[C@H](NC(=O)c1cn(C)c2ccc(-c3ccn4nc(NC(=O)CN5CC[C@H](CO)C5)nc4c3)cc12)c1ccc(F)cc1` [Compound 61] is lower in pEC50: over 9.00 for the first, 8.00 to 9.00 for the second.

`C[C@H](NC(=O)c1cn(C)c2ccc(-c3ccn4nc(NC(=O)CN5CCOCC5=O)nc4c3)cc12)c1ccc(F)cc1` [Compound 16] and `C[C@H](NC(=O)c1cn(C)c2ccc(-c3ccn4nc(NC(=O)CN5CC(O)CC5=O)nc4c3)cc12)c1ccc(F)cc1` (stereo in doubt) [Compound 3] fall in the same range of pEC50: 7.00 to 8.00 for the first, 7.00 to 8.00 for the second.

`C[C@H](NC(=O)c1nn(C)c2ccc(-c3ccn4nc(NC(=O)[C@H]5CCCO5)nc4c3)cc12)c1ccc(F)cc1` [Compound 193] and `C[C@H](NC(=O)c1nn(C)c2ccc(-c3ccn4nc(NC(=O)CN5CCOCC5)nc4c3)cc12)c1ccc(F)cc1` [Compound 196] cannot be ordered by pEC50: over 9.00 for the first, over 9.00 for the second.

`C[C@H](NC(=O)c1cn(C)c2ccc(-c3ccn4nc(NC(=O)CN5CCC(N6CCOCC6)CC5)nc4c3)cc12)c1ccc(F)cc1` [Compound 38] and `C[C@H](NC(=O)c1cn(C)c2ccc(-c3ccn4nc(NC(=O)CN5CCN(C(=O)C6CC6)CC5)nc4c3)cc12)c1ccc(F)cc1` [Compound 50] cannot be ordered by pEC50: over 9.00 for the first, over 9.00 for the second.

`C[C@H](NC(=O)c1cn(C)c2ccc(-c3ccn4nc(NC(=O)CNCCOCCO)nc4c3)cc12)c1ccc(F)cc1` [Compound 65] and `C[C@H](NC(=O)c1cn(C)c2ccc(-c3ccn4nc(NC(=O)Cn5cccn5)nc4c3)cc12)c1ccc(F)cc1` [Compound 58] cannot be ordered by pEC50: over 9.00 for the first, over 9.00 for the second.

First: CC(=O)Nc1nc2cc(-c3ccc4c(c3)c(C(=O)N[C@H]3CCCc5ccc(F)cc53)cn4C)ccn2n1 [Compound 145]
Second: CC(=O)Nc1nc2cc(-c3ccc4c(c3)c(C(=O)NC3CCc5cc(F)ccc53)cn4C)ccn2n1 (stereo in doubt) [Compound 127]
The pEC50 of the first is higher: 8.00 to 9.00 for the first, 5.00 to 6.00 for the second.

First: CC(=O)Nc1nc2cc(-c3ccc4c(c3)c(C(=O)N[C@H]3CCc5cc(C#N)ccc53)cn4C)ccn2n1 [Compound 132]
Second: Cn1cc(C(=O)Nc2nc3cc(-c4ccc5c(c4)c(C(=O)N[C@H]4CCCc6ccc(F)cc64)cn5C)ccn3n2)cn1 [Compound 143]
The pEC50 of the first is lower: 6.00 to 7.00 for the first, 8.00 to 9.00 for the second. The second is the more potent here.

`C[C@H](NC(=O)c1nn(C)c2ccc(-c3ccn4nc(NC(=O)c5cnn(C)c5)nc4c3)cc12)c1ccc(F)cc1` [Compound 191] and `Cn1cc(C(=O)Nc2nc3cc(-c4ccc5c(c4)c(C(=O)N[C@@H](CF)c4ccc(F)cc4)nn5C)ccn3n2)cn1` [Compound 187] cannot be ordered by pEC50: over 9.00 for the first, over 9.00 for the second.

First: C[C@H](NC(=O)c1cn(C)c2ccc(-c3ccn4nc(NC(=O)CN5CC[C@@H](F)C5)nc4c3)cc12)c1ccc(F)cc1 [Compound 20]
Second: C[C@H](NC(=O)c1cn(C)c2ccc(-c3ccn4nc(NC(=O)CN5CCCC(CO)C5)nc4c3)cc12)c1ccc(F)cc1 (some centres unmarked) [Compound 44]
The pEC50 of the first is higher: over 9.00 for the first, 8.00 to 9.00 for the second.

Compared with `CC(C(=O)Nc1nn(C)c2ccc(-c3ccn4nc(NC(=O)c5cnn(C)c5)nc4c3)cc12)c1ccc(F)cc1` (centres unmarked) [Compound 181], `C[C@H](NC(=O)c1cn(C)c2ccc(-c3ccn4nc(NC(=O)Cn5ccnc5)nc4c3)cc12)c1ccc(F)cc1` [Compound 48] is higher in pEC50: 5.00 to 6.00 for the first, 7.00 to 8.00 for the second. The second is the more potent here.

`CC(C)Nc1nc2cc(-c3ccc4c(c3)c(C(=O)N[C@@H](CF)c3ccc(F)cc3)cn4C)ccn2n1` [Compound 99] and `CN(C)CC(=O)Nc1nc2cc(-c3ccc4c(c3)c(C(=O)N[C@H](c3ccc(F)cc3)C(F)F)cn4C)ccn2n1` [Compound 167] cannot be ordered by pEC50: over 9.00 for the first, over 9.00 for the second.

`C[C@H](NC(=O)c1cn(C)c2ccc(-c3ccn4nc(NC(=O)CN5CCN(C(=O)OC(C)(C)C)C[C@H]5C)nc4c3)cc12)c1ccc(F)cc1` [Compound 64] and `C[C@H](NC(=O)c1cn(C)c2ccc(-c3ccn4nc(NC(=O)CN5CCOC[C@@H]5C)nc4c3)cc12)c1ccc(Cl)cc1` [Compound 82] cannot be ordered by pEC50: over 9.00 for the first, over 9.00 for the second.

First: Cn1cc(C(=O)N2CC(F)(F)CC2c2ccc(F)cc2)c2cc(-c3ccn4nc(NC(=O)C5CC5)nc4c3)ccc21 (centres unmarked) [Compound 158]
Second: Cn1cc(C(=O)N2CCC[C@H]2c2ccc(F)cc2)c2cc(-c3ccn4nc(NC(=O)N5CCOCC5)nc4c3)ccc21 [Compound 153]
The pEC50 of the first is lower: 5.00 to 6.00 for the first, over 9.00 for the second.

First: C[C@H](NC(=O)c1cn(C)c2ccc(-c3ccn4nc(N5CCOCC5=O)nc4c3)cc12)c1ccc(F)cc1 [Compound 218]
Second: C[C@H](NC(=O)c1cn(C)c2ccc(-c3ccn4nc(NC5CCOC5)nc4c3)cc12)c1ccc(F)cc1 (some centres unmarked) [Compound 107]
The pEC50 of the first is lower: 7.00 to 8.00 for the first, over 9.00 for the second. The second is the more potent here.

`CN1CCC(C(=O)Nc2nc3cc(-c4ccc5c(c4)c(C(=O)N[C@H](c4ccc(F)cc4)C(F)F)cn5C)ccn3n2)C1` (some centres unmarked) [Compound 168] and `C[C@H](NC(=O)c1cn(C)c2ccc(-c3ccn4nc(NC(=O)[C@H]5CCCO5)nc4c3)cc12)c1cccc(F)c1` [Compound 119] cannot be ordered by pEC50: over 9.00 for the first, over 9.00 for the second.

`C[C@H](NC(=O)c1cn(C)c2ccc(-c3ccn4nc(NC(=O)N5CCOCC5)nc4c3)cc12)c1cccc(F)c1` [Compound 118] and `CC1CN(CC(=O)Nc2nc3cc(-c4ccc5c(c4)c(C(=O)N[C@@H](C)c4ccc(Cl)cc4)cn5C)ccn3n2)CCO1` (some centres unmarked) [Compound 84] cannot be ordered by pEC50: over 9.00 for the first, over 9.00 for the second.
